Earlier results as cited in patent US8329142B2, “Compounds, compositions and methods for medical imaging of Parkinson's disease” (priority 2003, dated 2012).

How the values were obtained:
[1] = molecular target: Aβ(1-28) (Homo sapiens, UniProt P05067); details: computer-based molecular modeling
[2] = intra-venous (IV) and oral administration
[3] = molecular target: T1, Aβ(1-40) (Homo sapiens, UniProt P05067); details: in vitro
[4] = molecular target: T1, Aβ(1-40)

T1 sequence (P05067 672-711 limits assumed): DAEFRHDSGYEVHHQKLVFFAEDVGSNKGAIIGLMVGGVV
Sequence of Aβ(1-28) (P05067 672-699): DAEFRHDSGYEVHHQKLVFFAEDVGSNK

binding to Aβ(1-28) peptide site (pocket Lys28, Asp23, Lys16) [1]: bind specifically | brain penetration [2]: enters the brain | enhancement of Aβ(1-40) aggregation [3]: over 400% | reduction of α-helical content of Aβ(1-40) [4]: 15%
Compound: [12CH3][14N+]([12CH3])([12CH3])CC[16O][31P](=[16O])([16OH])[16O]CC([16OH])C[16OH] (stereo not shown) [GPC, glycerophosphocholine]
